Reference: US20110105474A1, “HETEROCYCLIC DERIVATIVES AS HDAC INHIBITORS” (DAC S.r.l., priority 2008, published 2011)
Counter-ions that a name gives are not always drawn.

What was measured:
Format in all cases: cell-based
[1] = test system: K562 cells; experiment: Cell growth, CellTiter-Glo Luminescent Cell Viability Assay, K562; conditions: Homo sapiens, 72 h incubation
Source text: (§1) CellTiter-Glo® Luminescent Cell Viability Assay (Promega) is a homogeneous method of determining the number of viable cells in culture based on quantitation of the present ATP, which indicates the presence of metabolically active cells. The homogeneous assay procedure involves addition of a single reagent (CellTiter-Glo®Reagent) directly to the cells, which leads to cell lysis and generation of a luminescent signal proportional to the amount of the ATP and the number of cells present in culture. The assay relies on the properties of a proprietary thermostable luciferase (Ultra-Glo® recombinant luciferase), which generates a luminescent signal.
(§2) K562, A549 and HCT-116 cells, in exponential growth, were incubated for 72 h with different concentrations of the inhibitors. After 72 h, a volume of CellTiter-Glo® Reagent equal to the volume of cell culture medium was added. The content was mixed for 2 min to induce cell lysis. The luminescence was recorded after further 10 min at RT in order to obtain a stabilized luminescent signal.
(§3) The IC50 was calculated using GraphPad Software.
(§4) IC50 results were allocated to one of 3 ranges as follows: Range A: IC50≦1.0 μM; Range B: from 1.0 to 3.0 μM; Range C: IC50≧3.0 μM.

[2] = test system: A549 cells; experiment: Cell growth, CellTiter-Glo Luminescent Cell Viability Assay, A549; conditions: Homo sapiens, 72 h incubation
Source text: as §1, §2, §3, §4

[3] = test system: HCT-116 cells; experiment: Cell growth, CellTiter-Glo Luminescent Cell Viability Assay, HCT-116; conditions: Homo sapiens, 72 h incubation, read-out: IC50 HCT116
Source text: as §1, §2, §3, §4

O=C(/C=C/c1cccc(/C=C/C(=O)N2CCCC(c3ccc(F)cc3)C2)c1)NO (racemic) [Example 84, (±)-(E)-3-(3-{(E)-3-[3-(4-Fluoro-phenyl)-piperidin-1-yl]-3-oxo-propenyl}-phenyl)-N-hydroxy-acrylamide]
IC50 [1]: ≥ 3000 nM
IC50 [2]: ≥ 3000 nM
IC50 [3]: ≥ 3000 nM

O=C(/C=C/c1cccc(/C=C/C(=O)N2CCN(c3ccccc3)CC2)c1)NO [Example 3, (E)-N-Hydroxy-3-{3-[(E)-3-oxo-3-(4-phenyl-piperazin-1-yl)-propenyl]-phenyl}-acrylamide]
IC50 [1]: ≤ 1000 nM
IC50 [2]: 1000 to 3000 nM
IC50 [3]: ≤ 1000 nM

O=C(/C=C/c1ccc(/C=C/C(=O)N2CCN(c3ccccc3)CC2)cc1)NO [Example 7, (E)-N-Hydroxy-3-{4-[(E)-3-oxo-3-(4-phenyl-piperazin-1-yl)-propenyl]-phenyl}-acrylamide]
IC50 [1]: ≥ 3000 nM
IC50 [2]: ≥ 3000 nM
IC50 [3]: ≥ 3000 nM

O=C(/C=C/c1ccc(/C=C/C(=O)N2CCN(c3ccccc3)CC2)cn1)NO [Example 11, (E)-N-Hydroxy-3-{5-[(E)-3-oxo-3-(4-phenyl-piperazin-1-yl)-propenyl]-pyridin-2-yl}-acrylamide]
IC50 [1]: 1000 to 3000 nM
IC50 [2]: ≥ 3000 nM
IC50 [3]: 1000 to 3000 nM

O=C(/C=C/c1cccc(/C=C/C(=O)N2CCN(c3ccccc3)CC2)n1)NO [Example 13, (E)-N-Hydroxy-3-{6-[(E)-3-oxo-3-(4-phenyl-piperazin-1-yl)-propenyl]-pyridin-2-yl}-acrylamide]
IC50 [1]: 1000 to 3000 nM
IC50 [2]: 1000 to 3000 nM
IC50 [3]: 1000 to 3000 nM

O=C(/C=C/c1cccc(/C=C/C(=O)N2CCN(c3cccc(Cl)c3)CC2)n1)NO [Example 15, (E)-3-(6-{(E)-3-[4-(3-Chloro-phenyl)-piperazin-1-yl]-3-oxo-propenyl}-pyridin-2-yl)-N-hydroxy-acrylamide]
IC50 [1]: 1000 to 3000 nM
IC50 [2]: ≥ 3000 nM
IC50 [3]: 1000 to 3000 nM

O=C(/C=C/c1cccc(/C=C/C(=O)N2CCN(C(=O)c3ccccc3)CC2)n1)NO [Example 16, (E)-3-{6-[(E)-3-(4-Benzoyl-piperazin-1-yl)-3-oxo-propenyl]-pyridin-2-yl}-N-hydroxy-acrylamide hydrochloride]
IC50 [1]: ≥ 3000 nM
IC50 [2]: ≥ 3000 nM
IC50 [3]: ≥ 3000 nM

O=C(/C=C/c1cccc(/C=C/C(=O)N2CCC(Cc3ccccc3)CC2)n1)NO [Example 17, (E)-3-{6-[(E)-3-(4-Benzyl-piperidin-1-yl)-3-oxo-propenyl]-pyridin-2-yl}-N-hydroxy-acrylamide hydrochloride]
IC50 [1]: 1000 to 3000 nM
IC50 [2]: 1000 to 3000 nM
IC50 [3]: 1000 to 3000 nM

O=C(/C=C/c1cccc(/C=C/C(=O)N2CCN(c3ccccc3Cl)CC2)n1)NO [Example 18, (E)-3-(6-{(E)-3-[4-(2-Chloro-phenyl)-piperazin-1-yl]-3-oxo-propenyl}-pyridin-2-yl)-N-hydroxy-acrylamide hydrochloride]
IC50 [1]: 1000 to 3000 nM
IC50 [2]: 1000 to 3000 nM
IC50 [3]: ≤ 1000 nM

O=C(/C=C/c1cccc(/C=C/C(=O)N2CCC(c3ccccc3)CC2)n1)NO [Example 19, (E)-N-Hydroxy-3-{6-[(E)-3-oxo-3-(4-phenyl-piperidin-1-yl)-propenyl]-pyridin-2-yl}-acrylamide hydrochloride]
IC50 [1]: 1000 to 3000 nM
IC50 [2]: 1000 to 3000 nM
IC50 [3]: 1000 to 3000 nM

O=C(/C=C/c1cccc(/C=C/C(=O)N2CCN(c3ncccn3)CC2)n1)NO [Example 20, (E)-N-Hydroxy-3{-6-[(E)-3-oxo-3-(4-pyrimidin-2-yl-piperazin-1-yl)-propenyl]-pyridin-2-yl}-acrylamide hydrochloride]
IC50 [1]: ≥ 3000 nM
IC50 [2]: ≥ 3000 nM
IC50 [3]: ≥ 3000 nM

O=C(/C=C/c1cccc(/C=C/C(=O)N2CCN(c3ccc(Cl)cc3)CC2)n1)NO [Example 21, (E)-3-(6-{(E)-3-[4-(4-Chloro-phenyl)-piperazin-1-yl]-3-oxo-propenyl}-pyridin-2-yl)-N-hydroxy-acrylamide hydrochloride]
IC50 [1]: ≤ 1000 nM
IC50 [2]: ≤ 1000 nM
IC50 [3]: ≤ 1000 nM

O=C(/C=C/c1cccc(/C=C/C(=O)N2CCN(Cc3ccccc3)CC2)n1)NO [Example 22, (E)-3-{6-[(E)-3-(4-Benzyl-piperazin-1-yl)-3-oxo-propenyl]-pyridin-2-yl}-N-hydroxy-acrylamide hydrochloride]
IC50 [1]: 1000 to 3000 nM
IC50 [2]: ≥ 3000 nM
IC50 [3]: 1000 to 3000 nM

O=C(/C=C/c1cccc(/C=C/C(=O)N2CCN(CCc3ccccc3)CC2)n1)NO [Example 23, (E)-N-Hydroxy-3-{6-[(E)-3-oxo-3-(4-phenethyl-piperazin-1-yl)-propenyl]-pyridin-2-yl}-acrylamide hydrochloride]
IC50 [1]: 1000 to 3000 nM
IC50 [2]: ≥ 3000 nM
IC50 [3]: 1000 to 3000 nM

O=C(/C=C/c1cccc(/C=C/C(=O)N2CCC(C(=O)c3ccccc3)CC2)n1)NO [Example 24, (E)-3-{6-[(E)-3-(4-Benzoyl-piperidin-1-yl)-3-oxo-propenyl]-pyridin-2-yl}-N-hydroxy-acrylamide hydrochloride]
IC50 [1]: 1000 to 3000 nM
IC50 [2]: ≥ 3000 nM
IC50 [3]: 1000 to 3000 nM

O=C(/C=C/c1cccc(/C=C/C(=O)N2CC=C(c3ccccc3)CC2)n1)NO [Example 26, (E)-N-Hydroxy-3-{6-[(E)-3-oxo-3-(4-phenyl-3,6-dihydro-2H-pyridin-1-yl)-propenyl]-pyridin-2-yl}-acrylamide hydrochloride]
IC50 [1]: 1000 to 3000 nM
IC50 [2]: 1000 to 3000 nM
IC50 [3]: ≤ 1000 nM

Cc1cccc(C)c1C1CCN(C(=O)/C=C/c2cccc(/C=C/C(=O)NO)n2)CC1 [Example 27, (E)-3-(6-{(E)-3-[4-(2,6-Dimethyl-phenyl)-piperidin-1-yl]-3-oxo-propenyl}-pyridin-2-yl)-N-hydroxy-acrylamide hydrochloride]
IC50 [1]: 1000 to 3000 nM
IC50 [2]: 1000 to 3000 nM
IC50 [3]: 1000 to 3000 nM

N#CC1(c2ccccc2)CCN(C(=O)/C=C/c2cccc(/C=C/C(=O)NO)n2)CC1 [Example 28, (E)-3-{6-[(E)-3-(4-Cyano-4-phenyl-piperidin-1-yl)-3-oxo-propenyl]-pyridin-2-yl}-N-hydroxy-acrylamide hydrochloride]
IC50 [1]: 1000 to 3000 nM
IC50 [2]: ≥ 3000 nM
IC50 [3]: 1000 to 3000 nM

O=C(/C=C/c1cccc(/C=C/C(=O)N2CCN(c3ccccn3)CC2)n1)NO [Example 29, (E)-N-Hydroxy-3-{6-[(E)-3-oxo-3-(4-pyridin-2-yl-piperazin-1-yl)-propenyl]-pyridin-2-yl}-acrylamide hydrochloride]
IC50 [1]: ≥ 3000 nM
IC50 [2]: ≥ 3000 nM
IC50 [3]: ≥ 3000 nM

Cc1cccc(C)c1N1CCN(C(=O)/C=C/c2cccc(/C=C/C(=O)NO)n2)CC1 [Example 31, (E)-3-(6-{(E)-3-[4-(2,6-Dimethyl-phenyl)-piperazin-1-yl]-3-oxo-propenyl}-pyridin-2-yl)-N-hydroxy-acrylamide hydrochloride]
IC50 [1]: 1000 to 3000 nM
IC50 [2]: ≥ 3000 nM
IC50 [3]: 1000 to 3000 nM

O=C(/C=C/c1cccc(/C=C/C(=O)N2CCC3(CC2)C(=O)NCN3c2ccccc2)n1)NO [Example 32, (E)-N-Hydroxy-3-{6-[(E)-3-oxo-3-(4-oxo-1-phenyl-1,3,8-triaza-spiro[4.5]dec-8-yl)-propenyl]-pyridin-2-yl}-acrylamide hydrochloride]
IC50 [1]: ≥ 3000 nM
IC50 [2]: ≥ 3000 nM
IC50 [3]: ≥ 3000 nM

COc1ccc(N2CCN(C(=O)/C=C/c3cccc(/C=C/C(=O)NO)n3)CC2)cc1 [Example 34, (E)-N-Hydroxy-3-(6-{(E)-3-[4-(4-methoxy-phenyl)-piperazin-1-yl]-3-oxo-propenyl}-pyridin-2-yl)-acrylamide hydrochloride]
IC50 [1]: 1000 to 3000 nM
IC50 [2]: 1000 to 3000 nM
IC50 [3]: ≤ 1000 nM

O=C(/C=C/c1cccc(/C=C/C(=O)N2CCN(c3ccc(C(F)(F)F)cc3)CC2)n1)NO [Example 35, (E)-N-Hydroxy-3-(6-{(E)-3-oxo-3-[4-(4-trifluoromethyl-phenyl)-piperazin-1-yl]-propenyl}-pyridin-2-yl)-acrylamide hydrochloride]
IC50 [1]: 1000 to 3000 nM
IC50 [2]: ≤ 1000 nM
IC50 [3]: ≤ 1000 nM

N#Cc1ccc(N2CCN(C(=O)/C=C/c3cccc(/C=C/C(=O)NO)n3)CC2)cc1 [Example 36, (E)-3-(6-{(E)-3-[4-(4-Cyano-phenyl)-piperazin-1-yl]-3-oxo-propenyl}-pyridin-2-yl)-N-hydroxy-acrylamide hydrochloride]
IC50 [1]: ≥ 3000 nM
IC50 [2]: ≥ 3000 nM
IC50 [3]: ≥ 3000 nM

O=C(/C=C/c1cccc(/C=C/C(=O)N2CCN(c3ccc(F)cc3)CC2)n1)NO [Example 37, (E)-3-(6-{(E)-3-[4-(4-Fluoro-phenyl)-piperazin-1-yl]-3-oxo-propenyl}-pyridin-2-yl)-N-hydroxy-acrylamide hydrochloride]
IC50 [1]: 1000 to 3000 nM
IC50 [2]: 1000 to 3000 nM
IC50 [3]: ≤ 1000 nM

O=C(/C=C/c1cccc(/C=C/C(=O)N2CCN(c3ccc(Br)cc3)CC2)n1)NO [Example 38, (E)-3-(6-{(E)-3-[4-(4-Bromo-phenyl)-piperazin-1-yl]-3-oxo-propenyl}-pyridin-2-yl)-N-hydroxy-acrylamide hydrochloride]
IC50 [1]: ≤ 1000 nM
IC50 [2]: ≤ 1000 nM
IC50 [3]: ≤ 1000 nM

O=C(/C=C/c1cccc(/C=C/C(=O)N2CCN(c3ccc(OCc4ccccc4)cc3)CC2)n1)NO [Example 39, (E)-3-(6-{(E)-3-[4-(4-Benzyloxy-phenyl)-piperazin-1-yl]-3-oxo-propenyl}-pyridin-2-yl)-N-hydroxy-acrylamide hydrochloride]
IC50 [1]: 1000 to 3000 nM
IC50 [2]: ≥ 3000 nM
IC50 [3]: 1000 to 3000 nM
